Measurements from patent US10752628B2, “Compounds and methods for treating synovial sarcomas” (THE BROAD INSTITUTE, INC., priority 2015, dated 2020).

Tests used:
Type in all cases: cell-based, human
[1] = system: BAF47 within the BAF complex; test: BAF155 immunoprecipitation and western blot for BAF47 in Aska cells; details: for BAF47 stabilization within the BAF complex (BAF155 immunoprecipitation): Aska cells, twenty-four hours, single 30 micromolar dose
Description: These include resynthesized positive hits for Compounds 5-6.
FIG. 8 comprises a series of images and graph illustrating the activity of Compound 5 in Yamato cells. Briefly, Yamato cells were treated with 30 μM compound for 24 hours over n=5 replicates. The graph depicts levels of BAF47 in DMSO treated vs Compound 5-treated cells.
(§1) All cell types were grown under standard conditions and lysed and homogenized in Buffer A (10 mM Hepes (pH 7.6), 25 mM KCl, 1 mM EDTA, 10% glycerol, 1 mM DTT, and protease inhibitors (complete mini tablets (Roche) supplemented with 1 mM PMSF) on ice. Nuclei were sedimented by centrifugation (1,000×g), resuspended in Buffer C (10 mM Hepes (pH 7.6), 3 mM MgCl2, 100 mM KCl, 0.1 mM EDTA, 10% glycerol, 1 mM DTT, and protease inhibitors), and lysed by the addition of ammonium sulfate to a final concentration of 0.3 M. Soluble nuclear proteins were separated by the insoluble chromatin fraction by ultracentrifugation (100,000×g) and precipitated with […] ammonium sulfate for 20 min on ice. Protein precipitate was isolated by ultracentrifugation (100,000×g), and resuspended in IP buffer (150 mM NaCl, 50 mM Tris-HCl (pH 8.0), 1% NonidetP-40, 0.5% deoxycholate, 1 mM DTT, 1 mM PMSF with protease inhibitors) for immunoprecipitation analyses or HEMG-0 buffer (25 mM HEPES pH 7.9, 0.1 mM EDTA, 12.5 mM MgCl2, 100 mM KCl, freshly supplemented with DTT and PMSF) for glycerol gradient analyses.
(§2) Nuclear extracts were resuspended in IP buffer and precleared for 30 minutes at 4 degrees C. using Protein G/A Sepharose beads (GE Healthcare). The protein concentration was determined using Bradford assay and adjusted to a final volume of 250 μL at a final concentration of 1.5 mg/mL with IP buffer. Each IP was incubated with 2.5 μg of antibody overnight at 4° C. and then for 2 h with 20 μL Protein A/G Sepharose beads. The beads were washed four times at room temperature with 1 mL IP buffer and resuspended in 20 μL 2× gel loading buffer (4×LDS Buffer; Invitrogen)+DTT.

[2] = system: BAF47 within the BAF complex; test: anti-Brg immunoprecipitation of BAF complexes followed by anti-BAF47 western blot in Aska cells; details: 48 hours at 16 μM, relative to DMSO control
Description: Briefly, naïve, unmodified Aska SS cells were treated for 48 hours at 16 μM concentration of all 5 positive hit compounds (as well as negative compounds for controls). The western blot reflects IPs of BAF complexes highlighting increased incorporation/stability of BAF47 relative to DMSO control. The bar graph highlights levels of BAF47 (measured via western blot quantitative densitometry) over n=3 experiments for each compound, including testing against three other negative compounds.
as §1, §2

[3] = system: Aska synovial sarcoma cells; test: Synovial sarcoma cell viability by CellTiter Glo luminescence
Description: FIGS. 15A-15C comprise a set of graphs illustrating the finding that compounds of the invention reduce synovial sarcoma cell viability as measured by CellTiter Glog luminescence.
The effect of compounds of the invention on synovial sarcoma cell viability was assessed as measured by CellTiter Glo® luminescence (FIGS. 15A-15B). Briefly, cells were plated under standard conditions and allowed to grow to 75% confluence prior to treatment with compounds. CellTiterGlo reagent was used to measure cell viability.

BAF47 = test: Time and dose study of Compound 11 on BAF47 stability in Aska cells; details: 0-30 micromolar, 24, 48 and 72 hours
Description: FIG. 9 comprises a set of bar graphs illustrating the effects of Compound 11 (illustrated), the lead compound lacking the hydroxyl group, as a function of time and dose in Aska cells.
Compound 11 was added at doses from 0-30 micromolar, and the results monitored at 24, 48, and 72 hours after treatment.

SMILES	BAF47 stabilization within the BAF complex (BAF155 immunoprecipitation) [1]	BAF47 stabilization (western blot image, FIG. 8 lower panel) ([1]; Aska-SS cells upon treatment with Compound 5)	BAF47 stabilization (anti-Brg IP, anti-BAF47 western blot) [2]	Cell viability (CellTiter Glo luminescence) [3]	BAF47 stability as a function of time and dose (BAF47)
COc1ccc2c3c([nH]c2c1)[C@@H](CO)N(Cc1ccccc1F)CC31CCN(C(=O)C2CCC2)CC1 [Compound 5, (S)-cyclobutyl(2′-(2-fluorobenzyl)-1′-(hydroxymethyl)-7′-methoxy-1′,2′,3′,9′-tetrahydrospiro[piperidine-4,4′-pyrido[3,4-b]indol]-1-yl)methanone]	stabilized BAF47 within the BAF complex	stabilization of BAF47	stabilized BAF47	resulted in cell toxicity	–
C[C@@H]1CN([C@H](C)CO)C(=O)c2cccc(NC(=O)c3ccc(-c4nccs4)cc3)c2O[C@@H]1CN(C)Cc1ccc(C(=O)Nc2ccccc2N)cc1 [Compound 1, N-(2-aminophenyl)-4-(((((2S,3R)-5-((R)-1-hydroxypropan-2-yl)-3-methyl-6-oxo-10-(4-(thiazol-2-yl)benzamido)-3,4,5,6-tetrahydro-2H-benzo[b][1,5]oxazocin-2-yl)methyl)(methyl)amino)methyl)benzamide]	–	–	stabilized BAF47	–	–
COc1ccc2c3c([nH]c2c1)CN(Cc1ccccc1F)CC31CCN(C(=O)C2CCC2)CC1 [Compound 11, cyclobutyl(2′-(2-fluorobenzyl)-7′-methoxy-1′,2′,3′,9′-tetrahydrospiro[piperidine-4,4′-pyrido[3,4-b]indol]-1-yl)methanone]	stabilized BAF47 within the BAF complex	–	–	–	increases BAF47 stability in dose-dependent manner
C[C@@H]1CCCCO[C@@H](CN(C)Cc2ccc(C(=O)Nc3ccccc3N)cc2)[C@H]2C[C@@H](CO)N(C2)C(=O)c2cc(N(C)C)ccc2O1 [Compound 8, N-(2-aminophenyl)-4-(((((13S,15R,5R,11R)-35-(dimethylamino)-15-(hydroxymethyl)-5-methyl-2-oxo-4,10-dioxa-1(1,3)-pyrrolidina-3(1,2)-benzenacycloundecaphane-11-yl)methyl)(methyl)amino)methyl)benzamide]	–	–	stabilized BAF47	–	–
C[C@@H]1CN([C@H](C)CO)C(=O)c2cc(NC(=O)NC3CCCCC3)ccc2O[C@@H]1CN(C)S(=O)(=O)c1cccs1 [Compound 3, N-(((2S,3R)-8-(3-cyclohexylureido)-5-((R)-1-hydroxypropan-2-yl)-3-methyl-6-oxo-3,4,5,6-tetrahydro-2H-benzo[b][1,5]oxazocin-2-yl)methyl)-N-methylthiophene-2-sulfonamide]	–	–	stabilized BAF47	–	–
